Patent US11484479B2, “Formulation for the elimination of cariogenic and opportunistic pathogens within the oral cavity” (Research Institute at Nationwide Children's Hospital, priority 2015, dated 2022)

Experiments:
S. mutans = experiment: Toxic cargo DM assay; assay type: cell-based, Streptococcus mutans; conditions: monoculture, 1 min; CHX 0.033% and H2O2 0.25% final concentration, no DM (FIG. 8A left)
Procedure: (§1) DM was hydrated in THB only (control) or THB containing either hydrogen peroxide (1.5%) or chlorhexidine (0.2%) to create a 10% (w/v) slurry. For Applicant's DM assays, 250 μl of hydrated DM G25 superfine (125 μl final volume; 12.5 mg) was added to a Micro Bio-Spin chromatography column (BioRad, Hercules, Calif.) and excess liquid was removed by centrifugation at 100×g for 30 seconds, leaving DM with toxic cargo in the lumen. 125 μl of THB (the same volume of excess toxic cargo removed by filtration) was added to the DM column to create a 10% slurry (w/v), followed by the immediate addition of 500 μl of culture as described above for Applicant's basic DM assay. For control assays containing no DM, 125 μl of THB or THB containing toxic cargo (the same volume that is present in the DM lumen) was added to the spin column containing 125 THB followed by the addition of 500 μl of culture as described above for Applicant's basic DM assay. After incubation for 1 minute at RT, the cell/DM mixture was centrifuged for 1 minute at 100×g. The flow-through was serial diluted in PBS, and serial dilutions were plated onto THB (S. gordonii) or THB containing 1.5 μg/ml erythromycin (S. mutans) or LB (E. coli) agar and incubated at 37° C.+5% CO2. […]

S. gordonii = experiment: Toxic cargo DM assay; assay type: cell-based, Streptococcus gordonii; conditions: monoculture, 1 min; CHX 0.033% and H2O2 0.25% final concentration, no DM (FIG. 8A left)
Procedure: as §1

Row | Compound | Total viable S. mutans after antimicrobial alone (no DM) (S. mutans) | Total viable S. gordonii after antimicrobial alone (no DM) (S. gordonii)
1 | OO [H2O2, hydrogen peroxide] | decreased the amount of total viable S. mutans and S. gordonii | decreased the amount of total viable S. mutans and S. gordonii
2 | [H]/N=C(\N/C(=N/[H])NCCCCCCNC(=N)NC(=N)Nc1ccc(Cl)cc1)Nc1ccc(Cl)cc1 [CHX, chlorhexidine] | decreased the amount of total viable S. mutans and S. gordonii | decreased the amount of total viable S. mutans and S. gordonii
